Results: patent US11766434B2, “Pyrimidinone derivatives as CDC7 inhibitors” (Cancer Research Technology Limited, priority 2016, dated 2023)

What was measured:
Cdc7 = Cdc7 (Homo sapiens, UniProt O00311); assay: Cdc7 cell pharmacodynamics assay Method 2: pS40MCM2 levels in HCT116 cells; format: cell-based; design: endogenous in cells; conditions: 18 hours treatment, read-out: Biomarker Method 2 (pEC50) (converted)
Excerpt: This protocol describes a method to investigate the inhibition of Cdc7 activity by measuring pS40MCM2 levels in cells, after treatment with compounds.
• HCT116 cells (ATCC, #CCL-247) • McCoys 5A with L-glutamine (Cellgro, #10-050-CV) • 10% FCS (Cellgro, #35-010-CV) • D-PBS without CaCl2 and MgCl2 (Cellgro, #21-031-CV) • Trypsin/EDTA (Cellgro, #25-052-CL) • BSA (Calbiochem, 126593) • Cell Extraction Buffer (Invitrogen FNN0011) • Protease inhibitor cocktail (Sigma P-2714) • PMSF 0.3M stock in DMSO (Sigma P7626) • Antibody—rabbit pMCM2 Ser40 (Abeam, AB133243) • Antibody—goat MCM2 (Bethyl #A300-122A) • Antibody—goat Anti Rabbit IgG HRP (Thermo, 31462) • SuperSignal ELISA Pico Chemiluminescent Substrate (Perbio Science UK Ltd 37069) • 10×PBS (Growcells, MRGF-6236) • Triton X100 (Sigma, P-T8787) • DMSO (Fisher, D128-1) • 2-Propanol (J. T. Baker, 9095-03) Method • Seed 1×10^6 HCT116 cells into each of two 175 cm^2 flask containing 30 mL Cell Growth Media and incubate at 37° C., 5% CO2 for 3 days. • Harvest the cells from one T175 cm^2 flask and count. • Dilute with Cell Growth Media to a cell density of 2×10^5. Dispense 100 μL to each well (20,000 HCT116 cells/well) of TC treated 96-well plate(s). • Allow cells to settle overnight in incubator set at 37° C. and 5% CO2. • Cell treatment: Transfer 0.25 μL/well from the compound plate to the wells of the cell plate(s). This is a 1:400 dilution of compound in the assay. • Once all cells are treated place the cells back to the incubator and incubate for 18 hours. • Dilute the capture antibody (total MCM2 #A300-122A) 1 in 250 in the required volume of PBS (5 mL per assay plate, plus 5 mL for dead volume) and add 50 μL to each well of a Hybond plate except wells A12 & B12. Seal the plate and incubate at room temperature fora minimum of 2 hours. • Defrost aliquot of Invitrogen Cell Extraction Buffer (FNN0011) on ice and supplement with appropriate volume of both Sigma protease inhibitor cocktail (P-2714) and PMSF (final cone 1 mM from a 1 M stock in DMSO). • After the 6 hour or 18 hour cell treatment time, tap out the media from the assay plates and place them in the −70° C. freezer for at least 5 minutes. • Flick out the remaining liquid in the previously prepared capture Ab plate(s) and add 200 μL 2% BSA per well. Incubate for 1 hour at room temperature. • Remove plates from freezer and add 20 μL of ice cold complete lysis buffer. Incubate cells for 30 minutes at 4° C. • Add 30 μL per well 2% BSA • At the end of the 1 hour incubation, wash the Capture/ELISA plate(s) with Wash Buffer on the BioTek plate washer. • Transfer 40 μL per well of the lysis plate(s) to the same wells in the Capture/ELISA plate. Incubate cells overnight at 4° C. • At the end of the overnight incubation, wash the ELISA plate(s) with Wash Buffer on BioTek plate washer. • Prepare Detection Antibody Buffer and dispense 50 μL to all wells of ELISA plate(s) except wells G1 & H1. Cover plate and incubate at room temperature for 2 hours with gentle shaking. • At the end of the 2 hour incubation, wash the ELISA plate(s) with Wash Buffer on the BioTek plate washer. • Prepare the Conjugated Antibody Buffer and dispense 50 μL to all wells of ELISA plate(s). • Cover the plate and incubate at room temperature for 1 hour with gentle shaking. • At the end of the 1 hour incubation, wash the ELISA plate(s) with Wash Buffer on the BioTek plate washer. • Prepare Substrate Buffer and dispense 50 μL to all wells of ELISA plate(s). • Incubate for a minimum of 10 minutes and read plates on the EnVision 2100 Multilabel Reader (Mirror: Luminescence (404) & Luminescence 700 (212); Measurement Height: 6.5 mm; Measurement Time: 0.2 s). Method 3

Cdc7/ASK = Cdc7/ASK (Homo sapiens, UniProt O00311); assay: Cdc7 biochemical assay Method 3: off-chip mobility shift assay (MSA) run at Carna Biosciences; design: purchased Carna Biosciences; host or cells: baculovirus expression system; conditions: MCM2 peptide 1000 nM, ATP 5 μM, 5 hours, read-out: Biochemical method 3 (pIC50) (converted)
Cdc7/ASK, sequence (O00311 whole entry): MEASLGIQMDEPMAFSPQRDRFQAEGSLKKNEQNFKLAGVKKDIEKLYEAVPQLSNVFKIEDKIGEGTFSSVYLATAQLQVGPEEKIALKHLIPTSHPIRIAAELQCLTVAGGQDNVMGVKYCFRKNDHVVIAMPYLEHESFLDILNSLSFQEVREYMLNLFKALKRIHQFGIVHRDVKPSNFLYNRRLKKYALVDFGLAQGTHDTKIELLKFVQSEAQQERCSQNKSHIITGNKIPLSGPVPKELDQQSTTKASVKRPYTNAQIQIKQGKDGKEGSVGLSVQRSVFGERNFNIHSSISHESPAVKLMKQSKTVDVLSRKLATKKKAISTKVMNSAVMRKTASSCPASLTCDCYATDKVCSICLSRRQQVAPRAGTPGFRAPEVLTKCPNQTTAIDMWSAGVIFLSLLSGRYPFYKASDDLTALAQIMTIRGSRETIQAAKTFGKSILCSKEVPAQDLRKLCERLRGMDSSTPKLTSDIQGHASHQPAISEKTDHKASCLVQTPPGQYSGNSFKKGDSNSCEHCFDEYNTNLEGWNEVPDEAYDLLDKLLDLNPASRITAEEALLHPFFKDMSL
Cdc7/ASK, sequence (Q9UBU7 whole entry partner): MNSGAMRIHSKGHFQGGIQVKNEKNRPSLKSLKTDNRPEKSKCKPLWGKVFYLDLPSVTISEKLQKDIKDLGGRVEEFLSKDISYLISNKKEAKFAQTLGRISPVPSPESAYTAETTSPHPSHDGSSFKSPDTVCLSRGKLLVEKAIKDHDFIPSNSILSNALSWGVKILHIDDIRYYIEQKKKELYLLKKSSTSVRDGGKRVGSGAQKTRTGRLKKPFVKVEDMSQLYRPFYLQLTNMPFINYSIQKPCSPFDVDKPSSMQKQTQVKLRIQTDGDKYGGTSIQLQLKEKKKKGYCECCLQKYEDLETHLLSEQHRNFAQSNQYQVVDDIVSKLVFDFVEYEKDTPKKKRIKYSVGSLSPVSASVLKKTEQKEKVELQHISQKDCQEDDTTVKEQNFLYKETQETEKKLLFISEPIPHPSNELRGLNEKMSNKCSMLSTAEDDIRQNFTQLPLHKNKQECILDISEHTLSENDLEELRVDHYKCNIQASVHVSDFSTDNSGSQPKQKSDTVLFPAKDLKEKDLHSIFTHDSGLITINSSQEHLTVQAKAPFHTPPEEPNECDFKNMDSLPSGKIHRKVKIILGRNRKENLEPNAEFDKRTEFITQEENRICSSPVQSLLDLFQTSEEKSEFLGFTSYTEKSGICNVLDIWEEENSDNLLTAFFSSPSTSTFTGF
Method: This protocol describes a method for assaying Cdc7/ASK for activity. The assay is an off-chip mobility shift assay (MSA) run at Carna Biosciences.
The test compound was dissolved in and diluted with dimethylsulfoxide (DMSO) to achieve 100-fold higher concentration which was specified by the sponsor. Then the solution was further 25-fold diluted with assay buffer to make the final test compound solution. Reference compounds for assay control were prepared similarly. 2. Kinase Cdc7/ASK: Full-length human Cdc7 [1-574(end) amino acids of accession number NP_003494.1] was co-expressed as N-terminal GST-fusion protein (92 kDa) with Dbf4(ASK) [1-674(end) amino acids of accession number NP_006707.1] using baculovirus expression system. GST-Cdc7 was purified by using glutathione sepharose chromatography. 3. Assay Reagents and Procedures Off-Chip Mobility Shift Assay (MSA) • 1) The […] were prepared with assay buffer (20 mM HEPES, 0.01% Triton X-100, 1 mM DTT, pH 7.5) and mixed and incubated in a well of polypropylene 384 well microplate for 5 hours at room temperature. • 2) […] of Termination Buffer (QuickScout Screening Assist MSA; Carna Biosciences) was added to the well. • 3) The reaction mixture was applied to LabChip system (Perkin Elmer), and the product and substrate peptide peaks were separated and quantitated. • 4) The kinase reaction was evaluated by the product ratio calculated from peak heights of product (P) and substrate (S) peptides (P/(P+S)). 4. Reaction Conditions
5. Data Analysis The readout value of reaction control (complete reaction mixture) was set as a 0% inhibition, and the readout value of background (Enzyme(−)) was set as a 100% inhibition, then the percent inhibition of each test solution was calculated. IC50 value was calculated from concentration vs. % Inhibition curves by fitting to a four parameter logistic curve. Results

Cdc7, sequence (O00311 whole entry): as the sequence (O00311 whole entry) above
Cdc7, sequence (Q9UBU7 whole entry partner): as the sequence (Q9UBU7 whole entry partner) above

Compound	EC50 (Cdc7)	IC50 (Cdc7/ASK)
O=c1[nH]c(-c2cn[nH]c2C(F)(F)F)nc(C2CCOCC2)c1Cl [Compound 17, 5-chloro-4-tetrahydropyran-4-yl-2-[5-(trifluoromethyl)-1H-pyrazol-4-yl]-1H-pyrimidin-6-one]	372 nM	
C[C@@H]1COCCN1c1nc(-c2cn[nH]c2C(F)(F)F)[nH]c(=O)c1Cl [Compound 41, 5-chloro-4-[(3R)-3-methylmorpholin-4-yl]-2-[5-(trifluoromethyl)-1H-pyrazol-4-yl]-1H-pyrimidin-6-one]	7.24 nM	3.98 nM
C[C@@H]1CNCCN1c1nc(-c2cn[nH]c2Cl)[nH]c(=O)c1Cl [Compound 43, 5-chloro-2-(5-chloro-1H-pyrazol-4-yl)-4-[(2R)-2-methylpiperazin-1-yl]-1H-pyrimidin-6-one]	38 nM	3.89 nM
C[C@@H]1CNCCN1c1nc(-c2cn[nH]c2C(F)(F)F)[nH]c(=O)c1Cl [Compound 44, 5-chloro-4-[(2R)-2-methylpiperazin-1-yl]-2-[5-(trifluoromethyl)-1H-pyrazol-4-yl]-1H-pyrimidin-6-one]	25.1 nM	6.17 nM
